Results taken from PubChem BioAssay AID330 (DTP/NCI, 2004).
Values joined by “and” are separate entries in the source; they are usually repeats but may differ in a detail not shown here. Equal entries are not always repeated. Inconclusive results and toxic doses are left out. How the source made its calls: active means survival T/C of 150% or more; inactive means T/C below 125% in these data. Square brackets hold non-standard residues; d marks the D form. Peptide text beside a SMILES is read from it. ξ: configuration not given here. ξL = CC(C)CC(N)C(=O)O

Tested on: P388 leukemia ip, CD2F1 mice, survival T/C
Test: NCI In Vivo Anticancer Drug Screen. Data for tumor model P388 Leukemia (intraperitoneal) in CD2F1 (CDF1) mice
Details: endpoint: median survival time, higher = longer survival
How it was run: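 Mice carrying the transplanted tumor received test compound or vehicle. Survival was recorded in each group, and the value is the treated-group measurement divided by that of the vehicle-treated control group.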

[1] = dose: 30.0 mg/kg/injection, schedule: Q01DX005 (ip), vehicle: Klucel (hydroxypropylcellulose) (HPC)
[2] = dose: 60.0 mg/kg/injection, schedule: Q01DX005 (ip), vehicle: Klucel (hydroxypropylcellulose) (HPC)
[3] = dose: 120.0 mg/kg/injection, schedule: Q01DX005 (ip), vehicle: Klucel (hydroxypropylcellulose) (HPC)
[4] = dose: 240.0 mg/kg/injection, schedule: Q01DX005 (ip), vehicle: Klucel (hydroxypropylcellulose) (HPC)
[5] = dose: 50.0 mg/kg/injection, schedule: Q01DX009 (ip), vehicle: saline + alcohol
[6] = dose: 100.0 mg/kg/injection, schedule: Q01DX009 (ip), vehicle: saline + alcohol
[7] = dose: 200.0 mg/kg/injection, schedule: Q01DX009 (ip), vehicle: saline + alcohol
[8] = dose: 50.0 mg/kg/injection, schedule: Q01DX009 (ip), vehicle: Klucel (hydroxypropylcellulose) (HPC)
[9] = dose: 100.0 mg/kg/injection, schedule: Q01DX009 (ip), vehicle: Klucel (hydroxypropylcellulose) (HPC)
[10] = dose: 200.0 mg/kg/injection, schedule: Q01DX009 (ip), vehicle: Klucel (hydroxypropylcellulose) (HPC)
[11] = dose: 200.0 mg/kg/injection, schedule: Q01DX009 (ip), vehicle: saline with Tween-80
[12] = dose: 60.0 mg/kg/injection, schedule: Q01DX005 (ip), vehicle: saline
[13] = dose: 120.0 mg/kg/injection, schedule: Q01DX005 (ip), vehicle: saline
[14] = dose: 240.0 mg/kg/injection, schedule: Q01DX005 (ip), vehicle: saline
[15] = dose: 7.5 mg/kg/injection, schedule: Q01DX005 (ip), vehicle: Klucel (hydroxypropylcellulose) (HPC)
[16] = dose: 15.0 mg/kg/injection, schedule: Q01DX005 (ip), vehicle: Klucel (hydroxypropylcellulose) (HPC)
[17] = dose: 100.0 mg/kg/injection, schedule: Q01DX001 (ip), vehicle: saline with Tween-80
[18] = dose: 200.0 mg/kg/injection, schedule: Q01DX001 (ip), vehicle: saline with Tween-80
[19] = dose: 400.0 mg/kg/injection, schedule: Q01DX001 (ip), vehicle: saline with Tween-80

Measured: T/C

Nc1[nH]c(=S)[nH]c(=O)c1NS(=O)(=O)c1ccc([N+](=O)[O-])cc1
inactive: [1] 101 % of control and 108 % of control | [2] 98 % of control and 94 % of control | [3] 101 % of control and 92 % of control | [4] 90 % of control

O=C(Nc1ccc(F)cc1F)Oc1ccc2cc(Br)ccc2c1
inactive: [5] 97 % of control | [6] 91 % of control | [7] 100 % of control

CCOC(=O)Cn1ccnc1[N+](=O)[O-]
inactive: dose: 12.5 mg/kg/injection, schedule: Q01DX009 (ip), vehicle: distilled water + Tween-80 102 % of control | dose: 25.0 mg/kg/injection, schedule: Q01DX009 (ip), vehicle: distilled water + Tween-80 97 % of control | dose: 50.0 mg/kg/injection, schedule: Q01DX009 (ip), vehicle: distilled water + Tween-80 100 % of control | dose: 100.0 mg/kg/injection, schedule: Q01DX009 (ip), vehicle: distilled water + Tween-80 102 % of control | dose: 200.0 mg/kg/injection, schedule: Q01DX009 (ip), vehicle: distilled water + Tween-80 109 % of control

O=C1CCS(=O)(=O)C(=O)N1c1ccccc1
inactive: [8] 100 % of control | [9] 97 % of control | [10] 87 % of control

CC(C)NC(=S)NCc1ccc(Cl)c(Cl)c1
inactive: dose: 50.0 mg/kg/injection, schedule: Q01DX009 (ip), vehicle: other 88 % of control | dose: 100.0 mg/kg/injection, schedule: Q01DX009 (ip), vehicle: other 96 % of control

COc1ccc(CCNC(=O)Cc2ccc(OC)c(OC)c2)cc1OC
inactive: dose: 100.0 mg/kg/injection, schedule: Q01DX009 (ip), vehicle: saline with Tween-80 100 % of control | [11] 106 % of control | dose: 400.0 mg/kg/injection, schedule: Q01DX009 (ip), vehicle: saline with Tween-80 123 % of control

COC(=O)c1c(O)c2c(c3c1OC(C)(C)CC3)OC(C)(C)CC2
inactive: [2] 93 % of control | dose: 60.0 mg/kg/injection, schedule: Q01DX005 (ip), vehicle: saline with Tween-80 90 % of control | [3] 92 % of control | dose: 120.0 mg/kg/injection, schedule: Q01DX005 (ip), vehicle: saline with Tween-80 91 % of control | [4] 90 % of control

CCCOc1ccccc1NC(=O)CN1CCCC1
inactive: [12] 104 % of control | [13] 106 % of control | [14] 116 % of control

C[C@@H]1C[C@@H]2c3cccc4[nH]cc(c34)C[C@H]2N(C)C1
inactive: dose: 3.12 mg/kg/injection, schedule: Q01DX005 (ip), vehicle: saline with Tween-80 98 % of control | dose: 6.25 mg/kg/injection, schedule: Q01DX005 (ip), vehicle: saline with Tween-80 98 % of control | dose: 12.5 mg/kg/injection, schedule: Q01DX005 (ip), vehicle: saline with Tween-80 100 % of control

O=C1C2C3(CCl)C1C23CCl (configuration not stated)
inactive: [15] 108 % of control | [16] 104 % of control | [1] 108 % of control

CC(=O)OCC1C(OC(C)=O)C(OC(C)=O)C(COC(C)=O)N1C(C)=O (configuration not stated)
inactive: dose: 100.0 mg/kg/injection, schedule: Q04DX003 (ip), vehicle: Klucel (hydroxypropylcellulose) (HPC) 90 % of control | dose: 200.0 mg/kg/injection, schedule: Q04DX003 (ip), vehicle: Klucel (hydroxypropylcellulose) (HPC) 90 % of control | dose: 400.0 mg/kg/injection, schedule: Q04DX003 (ip), vehicle: Klucel (hydroxypropylcellulose) (HPC) 87 % of control

CN1C2CCC(=O)C1CC2 (configuration not stated)
inactive: dose: 6.25 mg/kg/injection, schedule: Q01DX005 (ip), vehicle: saline + Tween-80 + alcohol 100 % of control | dose: 12.5 mg/kg/injection, schedule: Q01DX005 (ip), vehicle: saline + Tween-80 + alcohol 100 % of control | dose: 25.0 mg/kg/injection, schedule: Q01DX005 (ip), vehicle: saline + Tween-80 + alcohol 99 % of control

CC(=O)Nc1ccc(C(=O)O)c([N+](=O)[O-])c1
inactive: dose: 25.0 mg/kg/injection, schedule: Q01DX009 (ip), vehicle: Klucel (hydroxypropylcellulose) (HPC) 100 % of control | [8] 107 % of control | [9] 102 % of control | [10] 107 % of control

Cc1nn(-c2ccccc2)c(SC(C)(C)C)c1C=NCCN=Cc1c(C)nn(-c2ccccc2)c1SC(C)(C)C
inactive: dose: 3.75 mg/kg/injection, schedule: Q01DX005 (ip), vehicle: Klucel (hydroxypropylcellulose) (HPC) 100 % of control | [15] 98 % of control | [16] 100 % of control

CCCCOC1CCC2(C)C(=CCC3C2CCC2(C)C(C(C)CCCC(C)C)CCC32)C1 (configuration not stated)
inactive: dose: 100.0 mg/kg/injection, schedule: Q04DX003 (sc), vehicle: steriod suspending solution 104 % of control | dose: 200.0 mg/kg/injection, schedule: Q04DX003 (sc), vehicle: steriod suspending solution 100 % of control | dose: 400.0 mg/kg/injection, schedule: Q04DX003 (sc), vehicle: steriod suspending solution 100 % of control

Cc1ccc(C)c2c1[nH]c1c(C)c3ccncc3c(C)c12
inactive: [17] 100 % of control | [18] 104 % of control | [19] 120 % of control

CC1=CC(=Nc2ccc(N(C)C)cc2)C=CC1=O
inactive: dose: 3.13 mg/kg/injection, schedule: Q01DX009 (ip), vehicle: saline with Tween-80 104 % of control and 115 % of control | dose: 6.25 mg/kg/injection, schedule: Q01DX009 (ip), vehicle: saline with Tween-80 107 % of control and 115 % of control | dose: 12.5 mg/kg/injection, schedule: Q01DX009 (ip), vehicle: saline with Tween-80 111 % of control and 114 % of control

CC(C)CC(NC(=O)CN)C(=O)NCC(=O)NCC(=O)O (configuration not stated) (H-G[ξL]GG-OH)
inactive: dose: 50.0 mg/kg/injection, schedule: Q01DX005 (ip), vehicle: Klucel (hydroxypropylcellulose) (HPC) 100 % of control | dose: 100.0 mg/kg/injection, schedule: Q01DX005 (ip), vehicle: Klucel (hydroxypropylcellulose) (HPC) 102 % of control | dose: 200.0 mg/kg/injection, schedule: Q01DX005 (ip), vehicle: Klucel (hydroxypropylcellulose) (HPC) 95 % of control

O=C1CCCCCCCCC1O (configuration not stated)
inactive: dose: 100.0 mg/kg/injection, schedule: Q04DX003 (ip), vehicle: saline with Tween-80 106 % of control | dose: 200.0 mg/kg/injection, schedule: Q04DX003 (ip), vehicle: saline with Tween-80 108 % of control | dose: 400.0 mg/kg/injection, schedule: Q04DX003 (ip), vehicle: saline with Tween-80 110 % of control

COc1nc2c(=O)[nH]cnc2n1C1OC(CO)C(O)C1O (configuration not stated)
inactive: [12] 104 % of control | [13] 97 % of control | [14] 98 % of control

Cc1ccccc1N1C(=O)OC(C)C1=O (configuration not stated)
inactive: [17] 97 % of control | [18] 109 % of control | [19] 94 % of control

CCC[As](CCC)SC1CC(OC(=O)c2ccccc2)C(OC(=O)c2ccccc2)C(COC(=O)c2ccccc2)O1 (configuration not stated)
inactive: [5] 100 % of control | [6] 102 % of control | [7] 102 % of control

COc1ccc(CN2COc3c(cc(C)c4cccnc34)C2)cc1
inactive: dose: 50.0 mg/kg/injection, schedule: Q01DX009 (ip), vehicle: saline with Tween-80 98 % of control | [11] 111 % of control

c1csc(SSc2nccs2)n1
inactive: dose: 25.0 mg/kg/injection, schedule: Q04DX002 (ip), vehicle: saline with Tween-80 104 % of control | dose: 50.0 mg/kg/injection, schedule: Q04DX002 (ip), vehicle: saline with Tween-80 103 % of control | dose: 100.0 mg/kg/injection, schedule: Q04DX002 (ip), vehicle: saline with Tween-80 103 % of control and 105 % of control

CCOC(=O)NC(C)(C)CN(C(=O)OCC)C(C)(C)CO
inactive: dose: 50.0 mg/kg/injection, schedule: Q04DX003 (ip), vehicle: saline 100 % of control | dose: 100.0 mg/kg/injection, schedule: Q04DX003 (ip), vehicle: saline 109 % of control | dose: 200.0 mg/kg/injection, schedule: Q04DX003 (ip), vehicle: saline 109 % of control

Nc1c(Cl)ccc2cccnc12
inactive: dose: 50.0 mg/kg/injection, schedule: Q01DX005 (ip), vehicle: saline + Tween-80 + alcohol 107 % of control | dose: 100.0 mg/kg/injection, schedule: Q01DX005 (ip), vehicle: saline + Tween-80 + alcohol 107 % of control | dose: 200.0 mg/kg/injection, schedule: Q01DX005 (ip), vehicle: saline + Tween-80 + alcohol 110 % of control
